# Source: patent US20170020798A1, “HESPERIDIN-CONTAINING COMPOSITIONS AND METHODS FOR TREATMENT OF SKIN DISORDERS” (The Regents of the University of California, priority 2015, published 2017)
# Structures can show the parent of a compound that is named as a salt.
# Columns and labels:
# [1] = cited from earlier work
# [2] = test system: GC-induced epidermal side effects; test: Hesperidin co-applications with glucocorticoid (GC): prevention of GC-induced epidermal side effects; assay type: in vivo
# [3] = test system: aged epidermis; test: Gross appearance, histology and PCNA staining of aged mouse epidermis; assay type: in vivo; conditions: aged mice, 2% hesperidin topically twice daily for 9 days; NS vs. vehicle
# Method: (§1) All animal procedures were approved by the Animal Studies Subcommittee (IACUC) of the San Francisco Veterans Administration Medical Center and performed in accordance with their guidelines. Since hesperidin is not soluble in 100% ethanol, 70% ethanol was used as vehicle. Since the turnover time for […] is about 9.5 days in normal young mice, we chose to treat aged mice for 9 days. Both flanks of 12-15 month old mice were treated topically with 60 μl of 2% hesperidin or 70% ethanol twice daily for 9 days. Basal epidermal permeability barrier function was assessed by measuring transepidermal water loss (TEWL) using TM300 connected to MPA5 (C&K, Cologne, Germany). For barrier recovery, TEWL was measured using an electrolytic water analyzer (Meeco, Warrington, Pa.) at 0, 2 and 4 hours after tape stripping (10-fold increase in TEWL), and percent barrier recovery was calculated.
# Immunohistochemical staining for assessing changes in epidermal differentiation was performed as follows. Briefly, 5 μm paraffin sections were incubated with the primary antibodies (Covance, Emeryville, Calif.) overnight at 4° C. […] Staining was detected with ABC-peroxidase kit from Vector Lab (Burlingame, Calif.). Sections were examined with a Zeiss fluorescence microscope (Jena, Germany) and digital images were captured with AxioVision software (Carl Zeiss Vision, Munich, Germany).
# [4] = test system: aged mice; test: Cholesterol-dominant lipid mixture plus hesperidin on aged mice; assay type: in vivo, mouse; conditions: 2% hesperidin added to the triple lipid mixture, 18-month old mice, twice daily for 7 days
# Method: The composition includes a cholesterol-dominant lipid mixture plus hesperidin for the use on aged mice: 18-Month old mice were divided into groups of untreated, lipid mixture+vehicle (70% ethanol) treated, and lipid mixture+2% hesperidin treated. Mice are treated twice daily for 7 days. All measurements are carried out with a MPA5 physiology monitor. Lipid mixture contained cholesterol, fatty acid and ceramide (3:1:1 molar ratio, with cholesterol at 3 moles) at a concentration of 0.74 wt %. Data are normalized to untreated control, setting untreated as 100%.
# [5] = test system: murine skin; test: Epidermal mRNA levels of antioxidant enzymes after topical hesperidin; assay type: in vivo; conditions: topical hesperidin applications
# [6] = test system: aged murine skin; test: Epidermal function after topical hesperidin in aged mice (TEWL, barrier recovery, SC hydration, skin surface pH); assay type: in vivo, mouse
# Method: as §1
# [7] = Solubility of hesperidin in ethanol; assay type: physicochemical; conditions: 100% ethanol
# [8] = test system: aged mouse epidermis; test: Q-PCR for mRNA expression in aged mouse epidermis; assay type: in vivo
# [9] = test system: keratinocytes isolated from adult human (donor aged 60-65 year old); test: Q-PCR for mRNA expression in adult human keratinocyte cultures; assay type: cell-based; conditions: 0.02% hesperidin
# Method: Second-passage keratinocytes isolated from adult human (donor aged 60-65 year old) were cultured in serum-free keratinocyte growth medium containing 0.07 mM calcium (Clonetics, San Diego, Calif.). Cells at 60%-70% confluence were switched to a medium containing 1.2 mM calcium and treated with either 0.02% hesperidin or vehicle alone (0.02% ethanol). After 24 and 48 hrs of treatment, keratinocytes were collected for Q-PCR analysis.
# Total RNA was isolated from cultured human keratinocytes using TRI Reagent (Sigma). First strand cDNA was synthesized from 1 ug of total RNA with the iScript cDNA Synthesis Kit (Bio-Rad, Hercules, Calif.). The real-time PCR contained 20 ng of reversed transcribed total RNA, 450 nM forward and reverse primers, and 10 μl of 2× LightCycler 480 SYBR Green I Master in a final volume of 20 μl in 96-well plates using Mx3000PTM Real-time PCR System (Stratagene, La Jolla, Calif.). Quantification was performed by the comparative CT method with 36B4 or Cyclophilin A used for normalization. The primers for lipid synthetic enzymes such as 3-hydroxy-3-methyl-glutaryl-CoA reductase (HMGCoA), serine-palmitoyl transferase 1 (SPT1), fatty acid synthase (FAS), lipid transporters (ATP-binding cassette A12 (ABCA12)), mouse beta defensin 3 (mBD3), sodium-hydrogen exchanger 1 (NHE1), secretary phospholipase A2g2f (sPLA2g2f), filaggrin, involucrin, loricrin and Cyclophilin A are listed in Primer Table 2. Relative expression of the mRNAs compared to control mRNA was calculated. Data are expressed as percentage of control (as 100%).
# [10] = test system: aged epidermis; test: Lamellar body density and secretion (electron microscopy); assay type: in vivo, mouse
# Source text: Skin biopsies from both vehicle and hesperidin-treated mice were taken for electron microscopy. Briefly, samples were minced to <0.5 mm^3, fixed in modified Karnovsky's fixative overnight, and post-fixed in either 0.2% ruthenium tetroxide or 1% aqueous osmium tetroxide, containing 1.5% potassium ferrocyanide. After fixation, all samples were dehydrated in a graded ethanol series, and embedded in an Epon-epoxy mixture. Ultrathin sections were examined, with or without further contrasting with lead citrate, in a Zeiss 10A electron microscope (Carl Zeiss, Thornwood, N.J.), operated at 60 kV.
# LB numbers were determined in granular cells two to three layers below the stratum granulosum-stratum corneum (SG-SC) junction as previously described. The number of LBs was counted at 4800 magnification using a calibrated grid. Total 10 random pictures from each biopsy sample were assessed. For quantification of LB secretion, number of LB protrusion at the SG-SC junction were measured at a magnification of 5800 and correlated with the length of the bottom surface of the first SC layer on 10 random images at 5800 magnification.
# [11] = test system: young normal murine skin; test: Topical hesperidin on young normal murine skin; assay type: in vivo
# [12] = test system: normal epidermis; conditions: applied to normal epidermis; cited from earlier work
# [13] = hesperidin co-applications with GC
# [14] = aged epidermis, topical hesperidin, Q-PCR
# [15] = aged mouse epidermis, topical hesperidin
# [16] = aged mouse epidermis, topical hesperidin, Q-PCR
# [17] = aged human keratinocyte cultures
smiles,measurement,setting,value
"CC(C)CCC[C@@H](C)[C@H]1CC[C@H]2[C@@H]3CC=C4C[C@@H](OS(=O)(=O)O)CC[C@]4(C)[C@H]3CC[C@]12C [CSO4, Cholesterol sulfate]",pKa,[1],3.1
"COc1ccc([C@@H]2CC(=O)c3c(O)cc(O[C@@H]4O[C@H](CO[C@@H]5O[C@@H](C)[C@H](O)[C@@H](O)[C@H]5O)[C@@H](O)[C@H](O)[C@H]4O)cc3O2)cc1O [hesperidin, (2S)-5-hydroxy-2-(3-hydroxy-4-methoxyphenyl)-7-[(2S,3R,4S,5S,6R)-3,4,5-trihydroxy-6-[[(2R,3R,4R,5R,6S)-3,4,5-trihydroxy-6-methyloxan-2-yl]oxymethyl]oxan-2-yl]oxy-2,3-dihydrochromen-4-one]",GC-induced inhibition of epidermal proliferation,[2]; co-applications of hesperidin with GC,prevented
same,GC-induced impairment of epidermal permeability barrier homeostasis,[2]; [13],prevented
same,GC-induced impairment of stratum corneum (SC) integrity,[2]; [13],prevented
same,epidermal β-glucocerebrosidase activity,[2]; [13],enhanced
same,filaggrin expression,[2]; [13],significant increase
same,lamellar bilayer maturation,[2]; [13],accelerated
same,GC-induced impairment of SC acidification / changes in skin surface pH,[2]; hesperidin co-applications with topical GC,prevented
same,PCNA-positive cells per cm epidermal length,[3],2.45±0.13 cells per cm epidermal length
same,pH,[4],significantly improved (lowered)
same,epidermal glutathione reductase mRNA levels,[5],increased
same,epidermal superoxide dismutase mRNA levels,[5],increased
same,skin surface pH,"[6]; aged mice, 9 days topical hesperidin, compared with vehicle-treated skin",significantly declined
same,basal transepidermal water loss rates,"[6]; aged mice, 9 days topical hesperidin, compared with vehicle-treated skin, within normal range of young skin",increased slightly
same,baseline SC hydration,"[6]; aged mice, after 9 days of topical hesperidin, no different from vehicle",58.80±2.27
same,barrier recovery,[6]; at both 2 and 4 hours after acute barrier disruption of aged skin,significantly accelerated
same,solubility,[7],not soluble
same,Nrf2 expression,[8]; aged epidermis,upregulates
same,NHE1 mRNA levels,[8]; [14],marked elevation
same,sPLA2g2f mRNA levels,[8]; [14],marked elevation
same,epidermal mBD3 mRNA levels,"[8]; aged mice, hesperidin treatment",significantly increased
same,ABCA12 mRNA expression,[8]; [15],marked increase
same,filaggrin mRNA levels,[8]; [15],significantly increased
same,loricrin mRNA levels,[8]; [15],significantly increased
same,FAS mRNA levels,[8]; [16],significantly increased
same,HMGCoA mRNA levels,[8]; [16],significantly increased
same,SPT1 mRNA levels,[8]; [16],significantly increased
same,ABCA12 mRNA expression,[9]; adult keratinocyte cultures,marked increase
same,filaggrin mRNA levels,[9]; adult keratinocyte cultures,increased
same,involucrin mRNA levels,[9]; adult keratinocyte cultures,increased
same,loricrin mRNA levels,[9]; adult keratinocyte cultures,increased
same,CAMP/LL37 expression,[9]; [17],markedly upregulated
same,constitutive hBD2 mRNA expression,[9]; [17],no changes
same,hBD3 mRNA,[9]; [17],markedly upregulated
same,density of lamellar bodies,[10]; aged epidermis after hesperidin treatment,did not increase
same,extent of lamellar body secretion,"[10]; aged epidermis, topical hesperidin treatment, quantitative analyses",enhanced
same,epidermal differentiation,[11],stimulation
same,epidermal proliferation,[11],stimulation
same,lamellar body (lipid) secretion,[11],enhanced
same,skin barrier recovery after acute barrier abrogation,[11],significantly accelerated
CC[C@H](C)C(=O)O[C@H]1C[C@@H](C)C=C2C=C[C@H](C)[C@H](CC[C@@H]3C[C@@H](O)CC(=O)O3)[C@H]21 [lovastatin],effect on barrier function,[12],produces a barrier defect
